Measurements as given in patent publication US9499553B2 (CHUGAI SEIYAKU KABUSHIKI KAISHA, priority 2013, dated 2016).

These compounds were tested against T1, human NaPi-IIb (Homo sapiens, UniProt O95436) (assay: Inhibitory effect on 33PO4 uptake into human NaPi-IIb-expressing CHO cells). Conditions: read-out: IC50.
T1 construct: expressed in transfected cells
T1 sequence (O95436 1-690): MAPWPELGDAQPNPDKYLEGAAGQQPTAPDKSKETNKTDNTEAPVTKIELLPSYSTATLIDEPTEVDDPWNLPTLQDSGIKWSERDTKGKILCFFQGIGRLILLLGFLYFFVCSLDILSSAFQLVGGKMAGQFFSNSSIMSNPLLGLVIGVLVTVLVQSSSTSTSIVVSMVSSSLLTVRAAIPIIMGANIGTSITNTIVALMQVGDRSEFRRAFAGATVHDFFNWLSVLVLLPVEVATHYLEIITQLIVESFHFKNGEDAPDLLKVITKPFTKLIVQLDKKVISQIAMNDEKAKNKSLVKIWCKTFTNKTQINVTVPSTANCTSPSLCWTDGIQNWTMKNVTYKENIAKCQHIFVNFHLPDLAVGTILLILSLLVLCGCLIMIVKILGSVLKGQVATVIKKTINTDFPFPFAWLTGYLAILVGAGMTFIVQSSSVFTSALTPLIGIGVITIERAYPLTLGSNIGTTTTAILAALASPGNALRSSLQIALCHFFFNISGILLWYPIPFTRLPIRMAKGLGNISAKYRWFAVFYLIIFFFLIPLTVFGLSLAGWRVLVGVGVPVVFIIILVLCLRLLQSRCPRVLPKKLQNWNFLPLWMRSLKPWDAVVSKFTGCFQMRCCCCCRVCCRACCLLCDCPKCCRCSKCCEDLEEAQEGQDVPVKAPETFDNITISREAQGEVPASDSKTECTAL
Format: cell-based
In short: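 Stable human NaPi-IIb CHO line (G418-selected), plated and cultured overnight; ³³PO4 added in buffer A and uptake run at room temperature. Cells washed with ice-cold buffer A, then uptake counted by liquid scintillation.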

Row | SMILES | IC50 [µM]
1 | COc1cc(CN2C(=O)C(C(=O)Nc3ccc(C(F)(F)F)cc3-c3ccc(C(F)(F)F)nc3)=C(O)[C@@]3(C)CCCN23)cc(OC)c1 [Example 202] | 6.1
2 | C[C@]12CCCN1N(Cc1cccc(Cl)c1)C(=O)C(C(=O)Nc1cc(F)c(Br)c(F)c1)=C2O [Example 221] | 6.6
3 | CN1[C@@H](C(C)(C)C)C(O)=C(C(=O)Nc2ccc(Cl)cc2-c2cc(C(F)(F)F)ncn2)C(=O)N1Cc1ccc(OCCN2CCOCC2)c(F)c1F [Example 265, (3S)-3-tert-Butyl-N-[4-chloro-2-[6-(trifluoromethyl)pyrimidin-4-yl]phenyl]-1-[[2,3-difluoro-4-(2-morpholin-4-ylethoxy)phenyl]methyl]-4-hydroxy-2-methyl-6-oxo-3H-pyridazine-5-carboxamide] | 13.3
4 | C[C@]12CCCN1N(Cc1cccc(F)c1F)C(=O)C(C(=O)Nc1ccc(Br)c(F)c1)=C2O [Example 28] | 4.1
5 | C[C@]12CCCN1N(Cc1cc(F)c(F)cc1F)C(=O)C(C(=O)Nc1cc(F)c(Br)c(F)c1)=C2O [Example 194] | 19.3
6 | COc1cccc(CN2C(=O)C(C(=O)Nc3ccc(C(F)(F)F)cc3-c3ccc(C(F)(F)F)nc3)=C(O)[C@@]3(C)CCCN23)c1OC [Example 175] | 3.4
7 | C[C@]12CCCN1N(Cc1cccc(Cl)c1F)C(=O)C(C(=O)Nc1ccc(C(F)(F)F)cc1-c1ccc(C(F)(F)F)nc1)=C2O [Example 198] | 2.4
8 | C[C@]12CCCN1N(Cc1cccc(F)c1Cl)C(=O)C(C(=O)Nc1cc(F)c(Br)c(F)c1)=C2O [Example 174] | 2.2
9 | C[C@]12CCCN1N(Cc1ccccc1Br)C(=O)C(C(=O)Nc1cc(F)c(Br)c(F)c1)=C2O [Example 216] | 8
10 | C[C@]12CCCN1N(Cc1ccc(F)c(Br)c1)C(=O)C(C(=O)Nc1cc(F)c(Br)c(F)c1)=C2O [Example 224] | 7.2
11 | CN1[C@@H](C(C)(C)C)C(O)=C(C(=O)Nc2ccc(C(F)(F)F)cc2-c2ccnc(C#N)c2)C(=O)N1Cc1ccc(OCCN2CCOCC2)c(F)c1F [Example 271] | 17.3
12 | C[C@]12CCCN1N(Cc1cccc(F)c1F)C(=O)C(C(=O)Nc1ccc(C(F)(F)F)cc1-c1cnc(Cl)nc1)=C2O [Example 67] | 2
13 | CC(C)[C@H]1C(O)=C(C(=O)Nc2ccc(C(F)(F)F)cc2-c2ccc(C(F)(F)F)nc2)C(=O)N(Cc2ccc(OCCN3CCOCC3)c(F)c2F)N1C [Example 280] | 11.9
14 | COC(=O)c1cc(F)c(CN2C(=O)C(C(=O)Nc3ccc(C(F)(F)F)cc3-c3ccc(C(F)(F)F)nc3)=C(O)[C@@]3(C)CCCN23)c(F)c1 [Example 165, Methyl 4-[[(4aR)-4-Hydroxy-4a-methyl-2-oxo-3-[[4-(trifluoromethyl)-2-[6-(trifluoromethyl)pyridin-3-yl]phenyl]carbamoyl]-6,7-dihydro-5H-pyrrolo[1,2-b]pyridazin-1-yl]methyl]-3,5-difluorobenzoate] | 1.8
15 | CN1N(Cc2cccc(F)c2F)C(=O)C(C(=O)Nc2ccc(C(F)(F)F)cc2-c2cc(C#N)ncn2)=C(O)C1(C)C [Example 303] | 16

Now from value to compound:

Row | IC50 [µM] | SMILES
16 | 17.7 | Cc1c(C#N)ncnc1-c1cc(C(F)(F)F)ccc1NC(=O)C1=C(O)C2(CCC2)N(C)N(Cc2ccc(OCCN3CCOCC3)c(F)c2F)C1=O [Example 283]
17 | 8.6 | CN1N(Cc2ccc(OCCN3CCOCC3)c(F)c2F)C(=O)C(C(=O)Nc2ccc(C(F)(F)F)cc2-c2cc(C(F)(F)F)ncn2)=C(O)C12CCCC2 [Example 318, 7-[[2,3-Difluoro-4-(2-morpholin-4-ylethoxy)phenyl]methyl]-10-hydroxy-6-methyl-8-oxo-N-[4-(trifluoromethyl)-2-[6-(trifluoromethyl)pyrimidin-4-yl]phenyl]-6,7-diazaspiro[4.5]dec-9-ene-9-carboxamide]

Same assay, conditions: read-out: IC50 against 33PO4 uptake into human NaPi-IIb-expressing cells

Row | IC50 [µM] | SMILES
18 | 21 | CN1N(Cc2ccc(OCCNC(CC(=O)O)CC(=O)O)c(F)c2F)C(=O)C(C(=O)Nc2ccc(C(F)(F)F)cc2-c2cc(C(F)(F)F)ncn2)=C(O)C12CCCC2 [Example 382, 3-[2-[2,3-Difluoro-4-[[10-hydroxy-6-methyl-8-oxo-9-[[4-(trifluoromethyl)-2-[6-(trifluoromethyl)pyrimidin-4-yl]phenyl]carbamoyl]-6,7-diazaspiro[4.5]dec-9-en-7-yl]methyl]phenoxy]ethylamino]pentanedioate]
19 | 8.1 | CN1N(Cc2ccc(OCCCCOC[C@H](O)CO)c(F)c2F)C(=O)C(C(=O)Nc2ccc(C(F)(F)F)cc2-c2cc(C(F)(F)F)ncn2)=C(O)C12CCCC2 [Example 393]
20 | 6.7 | CN1N(Cc2ccc(OCCCCCOC[C@H](O)CO)c(F)c2F)C(=O)C(C(=O)Nc2ccc(C(F)(F)F)cc2-c2cc(C(F)(F)F)ncn2)=C(O)C12CCCC2 [Example 394]
21 | 23.1 | COCCN1CC(Oc2ccc(CN3C(=O)C(C(=O)Nc4ccc(C(F)(F)F)cc4-c4cc(C(F)(F)F)ncn4)=C(O)C4(CCC4)N3C)c(F)c2F)C1 [Example 406, 6-[[2,3-Difluoro-4-[1-(2-methoxyethyl)azetidin-3-yl]oxyphenyl]methyl]-9-hydroxy-5-methyl-7-oxo-N-[4-(trifluoromethyl)-2-[6-(trifluoromethyl)pyrimidin-4-yl]phenyl]-5,6-diazaspiro[3.5]non-8-ene-8-carboxamide]
22 | 10.1 | COCCN1CCC[C@H]1COc1ccc(CN2C(=O)C(C(=O)Nc3ccc(C(F)(F)F)cc3-c3cc(C(F)(F)F)ncn3)=C(O)C3(CCC3)N2C)c(F)c1F [Example 404, 6-[[2,3-Difluoro-4-[[(2S)-1-(2-methoxyethyl)pyrrolidin-2-yl]methoxy]phenyl]methyl]-9-hydroxy-5-methyl-7-oxo-N-[4-(trifluoromethyl)-2-[6-(trifluoromethyl)pyrimidin-4-yl]phenyl]-5,6-diazaspiro[3.5]non-8-ene-8-carboxamide]
23 | 8.5 | CN1N(Cc2ccc(OCCN3CCOCC3(C)C)c(F)c2F)C(=O)C(C(=O)Nc2ccc(C(F)(F)F)cc2-c2cc(C(F)(F)F)ncn2)=C(O)C12CCCC2 [Example 371]
24 | 9.9 | CN1N(Cc2ccc(OCCCOCCCO)c(F)c2F)C(=O)C(C(=O)Nc2ccc(C(F)(F)F)cc2-c2cc(C(F)(F)F)ncn2)=C(O)C12CCCC2 [Example 398]
25 | 6.2 | COCCN(C)CCOCCOCCOCCOc1ccc(CN2C(=O)C(C(=O)Nc3ccc(C(F)(F)F)cc3-c3cc(C(F)(F)F)ncn3)=C(O)C3(CCCC3)N2C)c(F)c1F [Example 431]
26 | 21.4 | CN(C[C@H](O)[C@@H](O)[C@H](O)[C@H](O)CO)C(=O)COCCOCCOCCOCCOc1ccc(CN2C(=O)C(C(=O)Nc3ccc(C(F)(F)F)cc3-c3cc(C(F)(F)F)ncn3)=C(O)C3(CCCC3)N2C)c(F)c1F [Example 441, 7-[[2,3-Difluoro-4-[2-[2-[2-[2-[2-[methyl-[(2S,3R,4R,5R)-2,3,4,5,6-pentahydroxyhexyl]amino]-2-oxoethoxy]ethoxy]ethoxy]ethoxy]ethoxy]phenyl]methyl]-10-hydroxy-6-methyl-8-oxo-N-[4-(trifluoromethyl)-2-[6-(trifluoromethyl)pyrimidin-4-yl]phenyl]-6,7-diazaspiro[4.5]dec-9-ene-9-carboxamide]
27 | 16.4 | CN1N(Cc2ccc(OCCN3CCC(N4CCOCC4)CC3)c(F)c2F)C(=O)C(C(=O)Nc2ccc(C(F)(F)F)cc2-c2cc(C(F)(F)F)ncn2)=C(O)C12CCCC2 [Example 374]
28 | 9.2 | CN1N(Cc2ccc(OCCN3CCC(N4CCOCC4)CC3)c(F)c2F)C(=O)C(C(=O)Nc2ccc(C(F)(F)F)cc2-c2cc(C(F)(F)F)ncn2)=C(O)C12CCC2 [Example 358]
